According to BindingDB's records for PubMed 10779381 (University of Ferrara, 2000):
Several values for one entry are separate records, joined by “and”; a condition that tells them apart may be missing. Identical values can stand only once.

Tests used:
Adenosine receptor A3 = target: T1, Adenosine receptor A3 (Homo sapiens, UniProt P0DMS8)
T1 sequence (P0DMS8 whole entry): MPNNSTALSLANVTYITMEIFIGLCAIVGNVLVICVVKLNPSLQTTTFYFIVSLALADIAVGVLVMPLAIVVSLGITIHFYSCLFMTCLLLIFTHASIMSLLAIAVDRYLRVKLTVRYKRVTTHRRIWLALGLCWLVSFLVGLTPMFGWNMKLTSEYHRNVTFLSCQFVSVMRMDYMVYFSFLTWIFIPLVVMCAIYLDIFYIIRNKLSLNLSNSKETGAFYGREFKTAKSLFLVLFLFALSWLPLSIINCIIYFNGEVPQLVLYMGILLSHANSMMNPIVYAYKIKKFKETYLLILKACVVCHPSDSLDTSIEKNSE

Adenosine receptor A1 = target: T2, Adenosine receptor A1 (Rattus norvegicus, UniProt P25099)
T2 sequence (P25099 whole entry): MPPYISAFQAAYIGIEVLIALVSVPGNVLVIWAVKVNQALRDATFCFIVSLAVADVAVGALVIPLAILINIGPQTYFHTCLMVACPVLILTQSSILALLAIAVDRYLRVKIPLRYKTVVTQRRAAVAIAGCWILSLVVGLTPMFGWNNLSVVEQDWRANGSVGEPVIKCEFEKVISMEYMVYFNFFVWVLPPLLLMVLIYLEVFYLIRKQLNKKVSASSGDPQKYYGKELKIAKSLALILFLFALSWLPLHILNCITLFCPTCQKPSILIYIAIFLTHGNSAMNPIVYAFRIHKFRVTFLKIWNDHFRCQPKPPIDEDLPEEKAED

Ki (Adenosine receptor A3)	Ki (Adenosine receptor A1)	Structure (SMILES)
> 10 µM	–	Nc1nc2c(cnn2CCc2ccccc2)c2nc(-c3ccco3)nn12
0.00048 µM and 0.00098 µM	–	CCCn1cc2c(nc(NC(=O)Nc3cccc(Cl)c3)n3nc(-c4ccco4)nc23)n1 [1-(3-chlorophenyl)-3-[2-(furan-2-yl)-8-propyl-8H-pyrazolo[4,3-e][1,2,4]triazolo[1,5-c]pyrimidin-5-yl]urea]
–	> 10 µM	CCCn1cc2c(nc(NC(=O)Nc3ccc(OC)cc3)n3nc(-c4ccco4)nc23)n1 [J1.251.181G]

Structure (SMILES)	Ki (Adenosine receptor A3)	Ki (Adenosine receptor A1)
Nc1nc2ccc(Cl)cc2c2nc(-c3ccco3)nn12	0.09 µM and 0.065 µM	–
